Results reported in US20240101570A1 (AMGEN INC., priority 2020, published 2024).

Tests used:
[1] = system: HCT116 MTAP null cells; assay: HCT116 MTAP null cell proliferation / viability (CellTiter-Glo, 6 days); assay type: cell-based; settings: HCT116-MTAP null, 144 h, HCT116 MTAP null cells, 6 days, CellTiter-Glo; read-out: HCT-116 MTAP null IC50
Method in brief: (§1)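 Viability read by CellTiter-Glo after 6-day compound exposure of MTAP-null and wild-type HCT116 cells grown in RPMI 1640 with 10% FBS. Dosing used 1:3 steps from 1 or 10 μM (8-9 points) or 1:2 steps from 10 or 50 μM (22 points); IC50 taken where fitted curve crosses 50% of control.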

[2] = system: HCT116 WT cells; assay: HCT116 WT cell proliferation / viability (CellTiter-Glo, 6 days); assay type: cell-based; settings: Homo sapiens, HCT-116, 144 h, HCT116 WT cells, 6 days, CellTiter-Glo; read-out: HCT-116 WT IC50
Method in brief: as §1

Structure (SMILES)	IC50 [1] [nM]	IC50 [2] [nM]
CN(Cc1ccc(Br)cn1)C(=O)c1ccc2nc(N)c3c(c2c1)COC3 [Example 330, 4-amino-N-((5-bromo-2-pyridinyl)methyl)-N-methyl-1,3-dihydrofuro[3,4-c]quinoline-8-carboxamide]	204	> 10000
C[C@H]1OCc2c1c(N)nc1ccc(C(=O)N(Cc3ccc(C#N)cn3)CC3CC3)cc21 [Example 331, (3R)-4-amino-N-((5-cyano-2-pyridinyl)methyl)-N-(cyclopropylmethyl)-3-methyl-1,3-dihydrofuro[3,4-c]quinoline-8-carboxamide]	28	2300
CC(C)N(Cc1ccc(Br)nn1)C(=O)c1ccc2nc(N)c3c(c2c1)CO[C@@H]3C [Example 332, (3R)-4-amino-N-((6-bromo-3-pyridazinyl)methyl)-3-methyl-N-(2-propanyl)-1,3-dihydrofuro[3,4-c]quinoline-8-carboxamide]	120	6100
C[C@H]1OCc2c1c(N)nc1ccc(C(=O)N(Cc3ccc(C(F)(F)F)nn3)CC3CC3)cc21 [Example 333, (3R)-4-amino-N-(cyclopropylmethyl)-3-methyl-N-((6-(trifluoromethyl)-3-pyridazinyl)methyl)-1,3-dihydrofuro[3,4-c]quinoline-8-carboxamide]	24	1410
C[C@H]1OCc2c1c(N)nc1ccc(C(=O)N(Cc3ccc(C(F)(F)F)cn3)CC3CC3)cc21 [Example 334, (3R)-4-amino-N-(cyclopropylmethyl)-3-methyl-N-((5-(trifluoromethyl)-2-pyridinyl)methyl)-1,3-dihydrofuro[3,4-c]quinoline-8-carboxamide]	10	509
Nc1nc2ccc(C(=O)N(Cc3ccc(C(F)(F)F)nn3)CC3CC3)cc2c2c1COC2 [Example 336, 4-amino-N-(cyclopropylmethyl)-N-((6-(trifluoromethyl)-3-pyridazinyl)methyl)-1,3-dihydrofuro[3,4-c]quinoline-8-carboxamide]	87	2570
CC1(CN(Cc2ccc(C(F)(F)F)cn2)C(=O)c2ccc3nc(N)c4c(c3c2)COC4)CC1 [Example 337, 4-amino-N-((1-methylcyclopropyl)methyl)-N-((5-(trifluoromethyl)-2-pyridinyl)methyl)-1,3-dihydrofuro[3,4-c]quinoline-8-carboxamide]	33	714
C[C@H]1OCc2c1c(N)nc1ccc(C(=O)N(Cc3ccc(C(F)(F)F)cn3)CC(C)(C)C)cc21 [Example 338, (3R)-4-amino-N-(2,2-dimethylpropyl)-3-methyl-N-((5-(trifluoromethyl)-2-pyridinyl)methyl)-1,3-dihydrofuro[3,4-c]quinoline-8-carboxamide]	406	5830
C[C@H]1OCc2c1c(N)nc1ccc(C(=O)N(Cc3ccc(C(F)(F)F)cn3)CC3(C)CC3)cc21 [Example 339, (3R)-4-amino-3-methyl-N-((1-methylcyclopropyl)methyl)-N-((5-(trifluoromethyl)-2-pyridinyl)methyl)-1,3-dihydrofuro[3,4-c]quinoline-8-carboxamide]	25	611
CC(C)(C)CN(Cc1ccc(C(F)(F)F)cn1)C(=O)c1ccc2nc(N)c3c(c2c1)COC3(C)C [Example 340, 4-amino-N-(2,2-dimethylpropyl)-3,3-dimethyl-N-((5-(trifluoromethyl)-2-pyridinyl)methyl)-1,3-dihydrofuro[3,4-c]quinoline-8-carboxamide]	2950	> 10000
CC1(CN(Cc2ccc(C(F)(F)F)cn2)C(=O)c2ccc3nc(N)c4c(c3c2)COC4(C)C)CC1 [Example 341, 4-amino-3,3-dimethyl-N-((1-methylcyclopropyl)methyl)-N-((5-(trifluoromethyl)-2-pyridinyl)methyl)-1,3-dihydrofuro[3,4-c]quinoline-8-carboxamide]	212	3790
Nc1nc2ccc(C(=O)N(Cc3ccc(C4CC4)cn3)C3CC3)cc2c2c1COC2 [Example 343, 4-amino-N-cyclopropyl-N-((5-cyclopropyl-2-pyridinyl)methyl)-1,3-dihydrofuro[3,4-c]quinoline-8-carboxamide]	270	8240
CN(Cc1ccc(C(F)(F)F)cn1)C(=O)c1cc2c3c(c(N)nc2cn1)COC3 [Example 344, 4-amino-N-methyl-N-((5-(trifluoromethyl)-2-pyridinyl)methyl)-1,3-dihydrofuro[3,4-c][1,7]naphthyridine-8-carboxamide]	244	> 10000
CC(C)N(Cc1ccc(C(F)(F)F)cn1)C(=O)c1cc2c3c(c(N)nc2cc1F)COC3 [Example 345, 4-amino-7-fluoro-N-(2-propanyl)-N-((5-(trifluoromethyl)-2-pyridinyl)methyl)-1,3-dihydrofuro[3,4-c]quinoline-8-carboxamide]	11	210
CC(C)N(Cc1ccc(C#N)cn1)C(=O)c1cc2c3c(c(N)nc2cn1)COC3 [Example 346, 4-amino-N-((5-cyano-2-pyridinyl)methyl)-N-(2-propanyl)-1,3-dihydrofuro[3,4-c][1,7]naphthyridine-8-carboxamide]	1090	19400
N#Cc1ccc(CN(C(=O)c2cc3c4c(c(N)nc3cn2)COC4)C2CC2)nc1 [Example 347, 4-amino-N-((5-cyano-2-pyridinyl)methyl)-N-cyclopropyl-1,3-dihydrofuro[3,4-c][1,7]naphthyridine-8-carboxamide]	712	43800
Nc1nc2cnc(C(=O)N(Cc3ccc(C4CC4)cn3)C3CC3)cc2c2c1COC2 [Example 348, 4-amino-N-cyclopropyl-N-((5-cyclopropyl-2-pyridinyl)methyl)-1,3-dihydrofuro[3,4-c][1,7]naphthyridine-8-carboxamide]	155	9040
CN(Cc1ccc(C2CC2)cn1)C(=O)c1cc2c3c(c(N)nc2cn1)COC3 [Example 349, 4-amino-N-((5-cyclopropyl-2-pyridinyl)methyl)-N-methyl-1,3-dihydrofuro[3,4-c][1,7]naphthyridine-8-carboxamide]	325	9190
CC(C)N(Cc1ccc(C2CC2)nc1)C(=O)c1ccc2nc(N)c3c(c2c1)CO[C@@H]3C [Example 350, (3R)-4-amino-N-((6-cyclopropyl-3-pyridinyl)methyl)-3-methyl-N-(2-propanyl)-1,3-dihydrofuro[3,4-c]quinoline-8-carboxamide]	332	22100
C[C@H]1OCc2c1c(N)nc1ccc(C(=O)N(Cc3ccc(C(F)(F)F)cn3)C3CC3)cc21 [Example 351, (3R)-4-amino-N-cyclopropyl-3-methyl-N-((5-(trifluoromethyl)-2-pyridinyl)methyl)-1,3-dihydrofuro[3,4-c]quinoline-8-carboxamide]	48	3510
CN(Cc1ccc(C(F)(F)F)nn1)C(=O)c1ccc2nc(N)c3c(c2c1)COC3 [Example 352, 4-amino-N-methyl-N-((6-(trifluoromethyl)-3-pyridazinyl)methyl)-1,3-dihydrofuro[3,4-c]quinoline-8-carboxamide]	872	> 10000
